ChEMBL document CHEMBL5528002, “Identification of selective 5-LOX and FLAP inhibitors as novel anti-inflammatory agents by ligand-based virtual screening” (Eur J Med Chem, 2024)
Active and inactive are the calls of the source. The calls are words filed in the database; no cut-off is given here.

Tests used:
[1] = target: T1, Prostaglandin E synthase (Homo sapiens) (UniProt O14684); assay: Inhibition of human mPGES-1 assessed as enzyme remaining activity at 10 uM relative to control
T1 sequence (whole entry): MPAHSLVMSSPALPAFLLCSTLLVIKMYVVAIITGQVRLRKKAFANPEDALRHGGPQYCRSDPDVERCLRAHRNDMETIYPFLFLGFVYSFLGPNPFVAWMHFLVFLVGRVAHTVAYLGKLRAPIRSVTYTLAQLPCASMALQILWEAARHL

Macrophage cell line [2] = assay: Effect on lipid mediator formation in human M1-like phenotype MDM cells by measuring 5-HETE formation at 10 uM pre-incubated for 15 mins followed by SACM stimulation and measured after 90 mins by UPLC-MS/MS analysis (reference value: 5357 +/- 1561 pg/ml); type: functional; conditions: time 105 min, 1.75 h
Macrophage cell line [3] = assay: Effect on lipid mediator formation in human M1-like phenotype MDM cells by measuring PGE2 formation at 10 uM pre-incubated for 15 mins followed by SACM stimulation and measured after 90 mins by UPLC-MS/MS analysis relative to control; type: functional; conditions: time 105 min, 1.75 h
Macrophage cell line [4] = assay: Effect on lipid mediator formation in human M1-like phenotype MDM cells by measuring TXB2 formation at 10 uM pre-incubated for 15 mins followed by SACM stimulation and measured after 90 mins by UPLC-MS/MS analysis relative to control; type: functional; conditions: time 105 min, 1.75 h
Macrophage cell line [5] = assay: Effect on lipid mediator formation in human M1-like phenotype MDM cells by measuring 17-HDHA formation at 10 uM pre-incubated for 15 mins followed by SACM stimulation and measured after 90 mins by UPLC-MS/MS analysis relative to control; type: functional; conditions: time 105 min, 1.75 h
Macrophage cell line [6] = assay: Effect on lipid mediator formation in human M1-like phenotype MDM cells by measuring 4-HDHA formation at 10 uM pre-incubated for 15 mins followed by SACM stimulation and measured after 90 mins by UPLC-MS/MS analysis relative to control; type: functional; conditions: time 105 min, 1.75 h
Macrophage cell line [7] = assay: Effect on lipid mediator formation in human M1-like phenotype MDM cells by measuring 15-HETE formation at 10 uM pre-incubated for 15 mins followed by SACM stimulation and measured after 90 mins by UPLC-MS/MS analysis relative to control; type: functional; conditions: time 105 min, 1.75 h
Macrophage cell line [8] = assay: Effect on lipid mediator formation in human M2-like phenotype MDM cells by measuring LTB4 formation at 10 uM pre-incubated for 15 mins followed by SACM stimulation and measured after 90 mins by UPLC-MS/MS analysis (reference value: 509 +/- 30 pg/ml); type: functional; conditions: time 105 min, 1.75 h
Macrophage cell line [9] = assay: Effect on lipid mediator formation in human M2-like phenotype MDM cells by measuring PGD2 formation at 10 uM pre-incubated for 15 mins followed by SACM stimulation and measured after 90 mins by UPLC-MS/MS analysis (reference value: 48 +/- 13 pg/ml); type: functional; conditions: time 105 min, 1.75 h
Macrophage cell line [10] = assay: Effect on lipid mediator formation in human M2-like phenotype MDM cells by measuring 7-HDHA formation at 10 uM pre-incubated for 15 mins followed by SACM stimulation and measured after 90 mins by UPLC-MS/MS analysis (reference value: 315 +/- 55 pg/ml); type: functional; conditions: time 105 min, 1.75 h
Macrophage cell line [11] = assay: Effect on lipid mediator formation in human M2-like phenotype MDM cells by measuring 4-HDHA formation at 10 uM pre-incubated for 15 mins followed by SACM stimulation and measured after 90 mins by UPLC-MS/MS analysis (reference value: 58 +/- 8 pg/ml); type: functional; conditions: time 105 min, 1.75 h
Macrophage cell line [12] = assay: Effect on lipid mediator formation in human M2-like phenotype MDM cells by measuring 12-HEPE formation at 10 uM pre-incubated for 15 mins followed by SACM stimulation and measured after 90 mins by UPLC-MS/MS analysis (reference value: 361 +/- 75 pg/ml); type: functional; conditions: time 105 min, 1.75 h
Macrophage cell line [13] = assay: Effect on lipid mediator formation in human M2-like phenotype MDM cells by measuring 15-HETE formation at 10 uM pre-incubated for 15 mins followed by SACM stimulation and measured after 90 mins by UPLC-MS/MS analysis (reference value: 18426 +/- 5001 pg/ml); type: functional; conditions: time 105 min, 1.75 h
Macrophage cell line [14] = assay: Effect on lipid mediator formation in human M2-like phenotype MDM cells by measuring 5,15-diHETE formation at 10 uM pre-incubated for 15 mins followed by SACM stimulation and measured after 90 mins by UPLC-MS/MS analysis (reference value: 1231 +/- 356 pg/ml); type: functional; conditions: time 105 min, 1.75 h
Macrophage cell line [15] = assay: Effect on lipid mediator formation in human M2-like phenotype MDM cells by measuring RvD5 formation at 10 uM pre-incubated for 15 mins followed by SACM stimulation and measured after 90 mins by UPLC-MS/MS analysis (reference value: 344 +/- 92 pg/ml); type: functional; conditions: time 105 min, 1.75 h
Macrophage cell line [16] = assay: Effect on lipid mediator formation in human M2-like phenotype MDM cells by measuring DHA formation at 10 uM pre-incubated for 15 mins followed by SACM stimulation and measured after 90 mins by UPLC-MS/MS analysis (reference value: 50400 +/- 3051 pg/ml); type: functional; conditions: time 105 min, 1.75 h
Macrophage cell line [17] = assay: Effect on lipid mediator formation in human M2-like phenotype MDM cells by measuring 5S,6R-diHETE formation at 10 uM pre-incubated for 15 mins followed by SACM stimulation and measured after 90 mins by UPLC-MS/MS analysis relative to control; type: functional; conditions: time 105 min, 1.75 h
Macrophage cell line [18] = assay: Effect on lipid mediator formation in human M2-like phenotype MDM cells by measuring 17-HDHA formation at 10 uM pre-incubated for 15 mins followed by SACM stimulation and measured after 90 mins by UPLC-MS/MS analysis relative to control; type: functional; conditions: time 105 min, 1.75 h
Macrophage cell line [19] = assay: Effect on lipid mediator formation in human M2-like phenotype MDM cells by measuring 15-HEPE formation at 10 uM pre-incubated for 15 mins followed by SACM stimulation and measured after 90 mins by UPLC-MS/MS analysis relative to control; type: functional; conditions: time 105 min, 1.75 h
Macrophage cell line [20] = assay: Effect on lipid mediator formation in human M2-like phenotype MDM cells by measuring 15-HETE formation at 10 uM pre-incubated for 15 mins followed by SACM stimulation and measured after 90 mins by UPLC-MS/MS analysis relative to control; type: functional; conditions: time 105 min, 1.75 h
Macrophage cell line [21] = assay: Effect on lipid mediator formation in human M2-like phenotype MDM cells by measuring 12-HETE formation at 10 uM pre-incubated for 15 mins followed by SACM stimulation and measured after 90 mins by UPLC-MS/MS analysis relative to control; type: functional; conditions: time 105 min, 1.75 h
Macrophage cell line [22] = assay: Effect on lipid mediator formation in human M2-like phenotype MDM cells by measuring MaR1 formation at 10 uM pre-incubated for 15 mins followed by SACM stimulation and measured after 90 mins by UPLC-MS/MS analysis relative to control; type: functional; conditions: time 105 min, 1.75 h
Macrophage cell line [23] = assay: Effect on lipid mediator formation in human M2-like phenotype MDM cells by measuring MaR2 formation at 10 uM pre-incubated for 15 mins followed by SACM stimulation and measured after 90 mins by UPLC-MS/MS analysis relative to control; type: functional; conditions: time 105 min, 1.75 h
Macrophage = assay: Cytotoxicity against human MDM cells assessed as reduction in cell viability at 10 uM incubated for 24 hrs by MTT assay; type: toxicity, cell-based; conditions: macrophage cell line
[24] = Antioxidant activity assessed as DPPH radical scavenging activity at 10 uM incubated for 30 min by DPPH assay; type: functional
Neutrophil = assay: Inhibition of ROS production in PMA-induced human Neutrophil cells at 10 uM incubated for 10 mins by DCFH-DA dye based fluorometric assay; type: functional, cell-based

Compound | Activity [1] | Activity (Macrophage cell line [2]) | Activity (Macrophage cell line [3]) | Activity (Macrophage cell line [4]) | Activity (Macrophage cell line [5]) | Activity (Macrophage cell line [6]) | Activity (Macrophage cell line [7]) | Activity (Macrophage cell line [8]) | Activity (Macrophage cell line [9]) | Activity (Macrophage cell line [10]) | Activity (Macrophage cell line [11]) | Activity (Macrophage cell line [12]) | Activity (Macrophage cell line [13]) | Activity (Macrophage cell line [14]) | Activity (Macrophage cell line [15]) | Activity (Macrophage cell line [16]) | Activity (Macrophage cell line [17]) | Activity (Macrophage cell line [18]) | Activity (Macrophage cell line [19]) | Activity (Macrophage cell line [20]) | also measured
Oc1ccc(CCC2CCC(c3ccc(O)cc3)CO2)cc1 (configuration not stated) | 80.3% | 695 pg/mL | 69% | 94% | 135% | 75% | 85% | 71 pg/mL | 62 pg/mL | 364 pg/mL | 58 pg/mL | 462 pg/mL | 26605 pg/mL | 751 pg/mL | 361 pg/mL | 53713 pg/mL | 7% | 149% | 140% | 144% | Activity (Macrophage cell line [21]): 122%; Activity (Macrophage cell line [22]): 106%; Activity (Macrophage cell line [23]): 191%; Activity (Macrophage): Non-Toxic; Activity [24]: inactive; inhibition (Neutrophil): inactive
COc1ccc(C2=C/C(=C/c3ccc(O)cc3O)C(=O)O2)cc1 | 89.3% | 361 pg/mL | 93% | 94% | 106% | 80% | 90% | 22 pg/mL | 96 pg/mL | 383 pg/mL | 49 pg/mL | 520 pg/mL | 25017 pg/mL | 479 pg/mL | 575 pg/mL | 53610 pg/mL | 4% | 173% | 157% | 136% | Activity (Macrophage cell line [21]): 114%; Activity (Macrophage cell line [22]): 189%; Activity (Macrophage cell line [23]): 219%; Activity (Macrophage): Non-Toxic; Activity [24]: inactive; inhibition (Neutrophil): inactive
